Data from patent publication US20080293782A1, “1,1,3-Trioxo-1,2,5-Thiadiazolidines and Their Use as Ptp-Ases Inhibitors” (priority 2005, published 2008).

Key:
human PTP-1B = biological target: T1, human PTP-1B (Homo sapiens, UniProt P18031); assay: inhibitory activity (IC50) to human PTP-1B; format: biochemical
T1 construct: recombinant human PTP-1B[1-298] or PTP-1B[1-322]
T1 sequence (P18031 1-298 limits assumed): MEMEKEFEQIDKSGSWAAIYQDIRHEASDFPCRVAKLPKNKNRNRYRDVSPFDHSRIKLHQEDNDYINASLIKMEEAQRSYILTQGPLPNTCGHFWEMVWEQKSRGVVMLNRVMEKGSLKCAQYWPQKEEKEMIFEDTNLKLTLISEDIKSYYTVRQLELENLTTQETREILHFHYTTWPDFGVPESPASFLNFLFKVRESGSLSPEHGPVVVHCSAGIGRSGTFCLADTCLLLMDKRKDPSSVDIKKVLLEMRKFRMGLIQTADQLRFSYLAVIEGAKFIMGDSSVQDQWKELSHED
Description: For example, the PTP-1B inhibitory activity in vitro may be determined as follows:
Assessment of human PTP-1B (hPTP-1B) activity in the presence of various agents is determined by measuring the amount of inorganic phosphate released from a phosphopeptide substrate using a 96-well microtiter plate format. The assay (100 μL) is performed in an assay buffer comprised of 50 mM TRIS (pH 7.5), 50 mM NaCl, 3 mM DTT at ambient temperature. The assay is typically performed in the presence of 0.4% dimethyl sulfoxide (DMSO). However, concentrations as high as 10% are used with certain poorly soluble compounds. […] Inorganic phosphate, a product of the enzyme reaction, is quantitiated after 15 min as the green color resulting from complexing with the Malichite reagent and is determined as an A620 using a Molecular Devices (Sunnyvale, Calif.) SpectraMAX Plus spectrophotometer. […] Activity is defined as the net change in absorbance resulting from the activity of the uninhibited hPTP-1B[1-411] minus that of a tube with acid-inactivated hPTP-1B[1-411]. […]
Alternatively, the assessment of human PTP-1B activity in the presence of various agents may be determined by measuring the hydrolysis products of known competing substrates. […]

## O=C1CN(c2cc(Oc3ccccc3)ccc2O)S(=O)(=O)N1 [Example 14, 5-(2-Hydroxy-5-phenoxyphenyl)-1,1-dioxo-1,2,5-thiadiazolidin-3-one]
other
  melting point: 153 to 157 °C

## O=C1CN(c2cc(-c3cn[nH]c3)ccc2O)S(=O)(=O)N1 [Example No. 2-5, 5-[2-Hydroxy-5-(1H-pyrazol-4-yl)-phenyl]-1,1-dioxo-1,2,5-thiadiazolidin-3-one]
Human PTP-1B
  IC50: 80 nM

## N#CCCCn1cc(-c2ccc(O)c(N3CC(=O)NS3(=O)=O)c2)cn1 [Example No. 13-7, 4-{4-[4-Hydroxy-3-(1,1,4-trioxo-1,2,5-thiadiazolidin-2-yl)-phenyl]-1H-pyrazol-1-yl}-butyronitrile]
Human PTP-1B
  IC50: 86 nM
